According to patent US6921530B1, “Low dose IL-2 for potentiation of immunity” (Cornell Research Foundation, Inc., priority 1999, dated 2005):
Values joined by “and” are separate entries in the source; they are usually repeats but may differ in a detail not shown here. Equal values may be shown once.

How the values were obtained:
plasma HIV RNA = assay: Plasma HIV RNA (branched chain DNA assay) after cessation of PART with continued low-dose IL-2; format: in vivo; conditions: for Increasing HIV Dbl time: IL-2 250,000 U/m^2 daily continued; for Max. Decrease (log): peak to trough
Description: The parameters monitored throughout the study included the time to the onset of viremia, the rate of viremic increase, the peak plasma virus concentration and the rapidity and completeness of the disappearance of viremia.
Prior to the discontinuation of PART, at least 3 months of daily, low-dose (250,000 U/m^2) subcutaneous IL-2 (R-Met-HU IL2-Ala-125, Amgen, Thousand Oaks, Calif.) immuno-stimulatory therapy were administered as described in Jacobsen, E L et al., Proc Natl Acad Sci USA 93:10405-10 (1996). In addition, to ensure the safest possible immune parameters for the discontinuation of PART, IL-2 immuno-stimulation was continued after the anti-viral drugs were withdrawn. […] All subjects had undetectable plasma virus during this interval.
Subsequent to the discontinuation of PART, plasma HIV was monitored twice weekly. Plasma HIV RNA concentrations were determined on EDTA anti-coagulated plasma samples, which were frozen (−70° C.) within 3 hours of phlebotomy. Samples were assayed by Bayer Diagnostics, Emeryville, Calif. Lymphocyte subsets were determined on fresh blood samples by flow cytometry using subset-specific monoclonal antibodies and a FACSCaliber from Becton-Dickinson, San, Jose, Calif. by standard procedures according to the manufacturer. All subjects eventually experienced a relapse of viremia The onset of viremia in each subject was taken as t=day 1. The mean time interval until plasma virus once again became detectable was 19±3 (SEM) days (range 14-39 days). Once detectable, the plasma virus concentration increased progressively over 2.5 weeks, reaching a mean peak of 375,101±229,139 (SEM) (log10=5.15±0.21) HIV RNA molecules/ml. Thereafter, the virus concentration decreased progressively over the next 4-6 weeks, reaching an apparent trough defined as at least 4 successive measures of HIV RNA that varied less than 3-fold. By 6 weeks from the onset of the viremia, the mean virus concentration had decreased to 31,707±11,851 (SEM) (log10=4.21±0.19) HIV RNA molecules/ml, a drop from the peak viral concentration by an order of magnitude.

HIV infection = assay: Daily IL-2 in conjunction with HAART in HIV infection (earlier experience); format: in vivo, human; conditions: after 6 months of IL-2 therapy
Source text: Daily low-dose IL-2 therapy served to correct the deficiency in CD4+ T cells, while maintaining the high frequency of CD8+ HIV-specific CTL, and increasing the circulating NK cells.

[1] = Tolerability of daily IL-2 doses in earlier studies of the applicant; format: in vivo
Description: a) IL-2: The initial dose of IL-2 used in this study is based on our studies in HIV infection. Individuals with HIV were able to tolerate rIL-2 at 1.2×10^6 IU/m^2/day. […] Peak plasma levels are measured at two hours after initial IL-2 injection. Dosage adjustments of IL-2 are made under the following circumstances:
(1) IL-2 Dosage reduction: If a subject experiences WHO grade I systemic toxicity, and is unable to tolerate the daily dose of rIL-2 at 1.2×10^6 IU/m^2/day, the dose is reduced to 0.9×10^6 IU/m^2/day. In the event that toxicity continues, the dose is decreased to 0.75 IU/m^2/day, which is halfway between the previous dose and the dose we have previously determined to be ineffective (0.6 IU/m^2/d).
This dose is midway between the starting dose and the dose found to be toxic in 100% of patients (2.4×10^6 IU /m^2/d). In the event that toxicity occurs, the dose is adjusted to 1.4×10^6 IU 1m^2/day, and if there is still toxicity, the dose will be returned to 1.2×10^6 IU /m^2/day.

HCV = conditions: cited from earlier work
HBV = conditions: cited from earlier work
[2] = after cessation of PART, IL-2 continued, subject #1-9, mean
[3] = after cessation of PART, IL-2 continued, subject #1-9, mean, mean
[4] = second treatment interruption, 4 subjects

## Interleukin-2 [IL-2]
Plasma HIV RNA; 3 of 4 individuals
  peak plasma HIV RNA after the first interruption: 5.53±0.54 log10 HIV RNA molecules/ml
  peak plasma HIV RNA after the second interruption: 4.27±0.27 log10 HIV RNA molecules/ml
  peak plasma HIV RNA lower after second than first interruption: 1.26±0.14 log10 HIV RNA molecules/ml
Plasma HIV RNA; after cessation of PART, subject #1-9, mean
  Increasing HIV Dbl time: 2.7 days and 1.3 days and 1.0 days and 2.0 days (2×) and 1.6 days (3×) and 1.2 days
Plasma HIV RNA; after cessation of PART, subject #1-9, mean, mean
  Increasing HIV Dbl time: 1.6 days
Plasma HIV RNA; [2]
  Decreasing HIV Time to Min.: 9 days and 28 days and 24 days and 7 days and 26 days (2×) and 10 days and 17 days and 18 days
  Increasing HIV Days to Peak: 28 days and 14 days (3×) and 21 days and 16 days (2×) and 18 days and 10 days
  Peak HIV #: 375,101±229,139 HIV RNA molecules/ml and 230,074 HIV RNA molecules/ml and 14059 HIV RNA molecules/ml and 40662 HIV RNA molecules/ml and 295942 HIV RNA molecules/ml and 160949 HIV RNA molecules/ml and 2185670 HIV RNA molecules/ml and 300203 HIV RNA molecules/ml and 375101 HIV RNA molecules/ml and 80910 HIV RNA molecules/ml and 230074 HIV RNA molecules/ml and 67442 HIV RNA molecules/ml
  Peak HIV (log): 5.15±0.21 log and (4.15) log and (4.61) log and (5.47) log and (5.21) log and (6.34) log and (5.48) log and (5.15) log and (4.91) log and (5.36) log and (4.83) log
  Trough HIV (log): 4.21±0.19 log and (3.96) log and (4.36) log and (4.69) log and (4.93) log and (4.97) log and (4.21) log and (3.68) log and (4.00) log and (3.36) log
Plasma HIV RNA; after cessation of PART, IL-2 continued, subject #1-9, mean (by 6 weeks from onset of viremia)
  Trough HIV #: 31,707±11,851 HIV RNA molecules/ml and 9215 HIV RNA molecules/ml and 9180 HIV RNA molecules/ml and 22695 HIV RNA molecules/ml and 48562 HIV RNA molecules/ml and 85782 HIV RNA molecules/ml and 92901 HIV RNA molecules/ml and 31707 HIV RNA molecules/ml and 4741 HIV RNA molecules/ml and 10024 HIV RNA molecules/ml and 2266 HIV RNA molecules/ml
Plasma HIV RNA; [3]
  Decreasing HIV Time to Min.: 18 days
  Increasing HIV Days to Peak: 17 days
Plasma HIV RNA; after discontinuation of PART, 9 subjects, mean ± SEM and range
  time interval until plasma virus once again became detectable: 19 ± 3 days and 14 to 39 days
Plasma HIV RNA; first 10 days after peak, IL-2 continued, subject #1-9, mean
  Decreasing HIV T ½: 84 ± 17 h and 182 h and 125 h and 132 h and 81.6 h and 38.4 h and 93.6 h and 84 h and 36 h and 43.2 h
Plasma HIV RNA; subject #1-9, mean
  Max. Decrease (log): 0.19 log and 0.65 log and 1.11 log and 0.52 log and 1.41 log and 0.51 log and 1.23 log and 1.36 log and 1.47 log
Plasma HIV RNA; subject #1-9, mean, mean
  Max. Decrease (log): 0.94 log
Plasma HIV RNA; [4]
  latent period to detectable viremia: 14.5 ± 4.1 days
  rate of doubling (t½): 36 ± 7.2 h
Plasma HIV RNA; subject D3
  days plasma HIV RNA undetectable after discontinuation of PART: 39 days
  plasma HIV RNA after 98 days as % of the peak viral concentration: < 1%
  plasma HIV RNA after 98 days without PART: 1,686 HIV RNA molecules/ml
Plasma HIV RNA; subjects #1, 2, 3, 8
  mean magnitude of decline of plasma HIV, rapid rate subjects: 1.37±0.05 log10 HIV RNA molecules/ml
  t ½ of viral decline, subjects with rapid rate: 38.4 ± 2.4 h
Plasma HIV RNA; subjects #4, 5, 6, 7, 9
  magnitude of decline of plasma HIV, slower rate subjects: 0.59±0.15 log10 HIV RNA molecules/ml
  mean t ½ of viral decline, subjects with slow rate: 122 ± 17 h
HIV infection
  Delayed Type Hypersensitivity (DTH) to common environmental antigens: more than doubled
[1]; 2.4×10^6 IU /m^2/d
  patients in whom the dose was toxic: 100%
[1]; in vivo
  dose previously determined to be ineffective: 0.6 IU/m^2/d
[1]; individuals with HIV
  tolerated daily dose: 1.2×10^6 IU/m^2/day
HCV; 33 subjects, s.c., 12 weeks, no IFN
  dose best tolerated and most effective: 2×10^6 CT/day
HCV; in vivo
  sustained virologic response: No sustained virologic response was found
HCV; preferred dose, 12 weeks
  biochemical response rate (normalization of ALT) at the end of treatment: 24%
HCV; preferred dose
  biochemical response rate 6 months following a 12 week course: 12%
HBV; 9×10^6 CU s.c. weekly for three weeks, then 1.8×10^6 CU twice a week for three months
  subjects with 50% reduction in HBV viral titer: 4/7
HBV; doses up to 3.6×10^6 CU/day SC qd for eight weeks
  subjects with response: 5/30
HBV; following the transient increase
  subsequent decrease in ALT levels: 30%
HBV; in vivo
  transient increase in ALT levels: 30%
